The compounds below were run on HBV (assay: HBV-DNA antiviral assay using HepG2.117 cells (intracellular HBV DNA by qPCR)). Conditions: HBV DNA inhibition, 3 days incubation, read-out: EC50.
Assay type: cell-based, HBV genotype D
Procedure, shortened: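 HepG2.117 cells (stably integrated genotype D HBV, Tet-off) seeded without doxycycline to induce pgRNA, then treated next day with 9 concentrations (4-fold dilutions, 2% DMSO) for 3 days at 37 °C. Intracellular HBV DNA quantified by qPCR against standard curve, viability by ATP content; inhibition relative to DMSO control, EC50/EC90/CC50 by non-linear regression.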
With `CC1Cn2c(c(C(=O)NCc3ccccc3-c3ccncn3)n(-c3ccc4oc(N)nc4c3)c2=O)CN1C(=O)c1ccc(Br)c(C(F)(F)F)c1` (single isomer, unassigned) [Compound 93a, (6R*)-2-(2-amino-1,3-benzoxazol-5-yl)-7-[4-bromo-3-(trifluoromethyl)benzoyl]-6-methyl-3-oxo-N-{[2-(pyrimidin-4-yl)phenyl]methyl}-5H,6H,8H-imidazo[1,5-a]pyrazine-1-carboxamide] the EC50 was 500 to 5000 nM. Work on `Cc1cnn(-c2ccccc2CNC(=O)c2c3n(c(=O)n2-c2ccc(OC4CC4)cc2)CC(C)N(C(=O)c2ccc(Br)c(Cl)c2)C3)c1` (single isomer, unassigned) [Compound 6b, 7-(4-bromo-3-chloro-benzoyl)-2-[4-(cyclopropoxy)phenyl]-6-methyl-N-[[2-(4-methylpyrazol-1-yl)phenyl]methyl]-3-oxo-6,8-dihydro-5H-imidazo[1,5-a]pyrazine-1-carboxamide] yielded an EC50 of under 50 nM. With `CC1Cn2c(c(C(=O)NCc3c(F)cccc3-c3cccc(N)n3)n(-c3ccc(OC4CC4)cc3)c2=O)CN1C(=O)c1ccc(Br)c(Cl)c1` (single isomer, unassigned) [Compound 35b] the EC50 was under 50 nM. `CC1Cn2c(c(C(=O)NCc3ccccc3-c3nccc(N)n3)n(-c3ccc(OC4CC4)cc3)c2=O)CN1C(=O)c1ccc(Br)c(C(F)(F)F)c1` (single isomer, unassigned) [Compound 29b] was tested, and the EC50 was under 50 nM. Compound `CC1Cn2c(c(C(=O)NCc3ccccc3-c3ccncn3)n(-c3ccc(OC[C@@H](C)O)cc3)c2=O)CN1C(=O)c1ccc(Br)c(C(F)(F)F)c1` (stereo in doubt) [Compound 55b, (6S*)-7-[4-bromo-3-(trifluoromethyl)benzoyl]-2-{4-[(2R)-2-hydroxypropoxy]phenyl}-6-methyl-3-oxo-N-{[2-(pyrimidin-4-yl)phenyl]methyl}-5H,6H,8H-imidazo[1,5-a]pyrazine-1-carboxamide] has an EC50 of under 50 nM. Compound `Cc1cc(C(=O)N2Cc3c(C(=O)NCc4ccccc4-c4ccncn4)n(-c4ccc(OC5CC5)cc4)c(=O)n3CC2C)ccc1Br` (single isomer, unassigned) [Compound 12b, 7-(4-bromo-3-methyl-benzoyl)-2-[4-(cyclopropoxy)phenyl]-6-methyl-3-oxo-N-[(2-pyrimidin-4-ylphenyl)methyl]-6,8-dihydro-5H-imidazo[1,5-a]pyrazine-1-carboxamide] has an EC50 of under 50 nM. `CC1Cn2c(c(C(=O)NCc3c(F)cccc3Cl)n(-c3ccc(N4CC5(CN(C)C5)C4)cc3)c2=O)CN1C(=O)c1ccc(Br)c(C(F)(F)F)c1` (single isomer, unassigned) [Compound 106b] was tested, and the EC50 was 50 to 500 nM. `CC1Cn2c(c(C(=O)NCc3ccccc3-c3ncccn3)n(-c3ccc(OC4CC4)cc3)c2=O)CN1C(=O)c1ccc(Br)c(C(F)(F)F)c1` (single isomer, unassigned) [Compound 59b] showed an EC50 of under 50 nM. For `CC1Cn2c(c(C(=O)NCc3c(F)cccc3-n3cccn3)n(-c3ccc(OC4CC4)cc3)c2=O)CN1C(=O)c1ccc(Br)c(Cl)c1` (single isomer, unassigned) [Compound 24b], the EC50 was under 50 nM. `COc1cnn(-c2ccccc2CNC(=O)c2c3n(c(=O)n2-c2ccc(OC4CC4)cc2)CC(C)N(C(=O)c2ccc(Br)c(Cl)c2)C3)c1` (single isomer, unassigned) [Compound 17b, 7-(4-bromo-3-chloro-benzoyl)-2-[4-(cyclopropoxy)phenyl]-N-[[2-(4-methoxypyrazol-1-yl)phenyl]methyl]-6-methyl-3-oxo-6,8-dihydro-5H-imidazo[1,5-a]pyrazine-1-carboxamide] was tested, and the EC50 was under 50 nM. `Cc1nnc(-c2ccccc2CNC(=O)c2c3n(c(=O)n2-c2ccc4oc(C)nc4c2)CC(C)N(C(=O)c2ccc(Br)c(Cl)c2)C3)o1` (single isomer, unassigned) [Compound 53b] showed an EC50 of 50 to 500 nM. For `CC1Cn2c(c(C(=O)NCc3ccccc3-c3cc(N)cnn3)n(-c3ccc(OC4CC4)cc3)c2=O)CN1C(=O)c1ccc(Br)c(Cl)c1` (single isomer, unassigned) [Compound 42b], the EC50 was 50 to 500 nM. Work on `CC1Cn2c(c(C(=O)NCc3ccccc3-c3cccnn3)n(-c3ccc(OC[C@@H](C)O)cc3)c2=O)CN1C(=O)c1ccc(Br)c(C(F)(F)F)c1` (single isomer, unassigned) [Compound 56b] yielded an EC50 of 50 to 500 nM. Compound `CNc1cc(-c2ccccc2CNC(=O)c2c3n(c(=O)n2-c2ccc(OC4CC4)cc2)CC(C)N(C(=O)c2ccc(Br)c(C(F)(F)F)c2)C3)ncn1` (single isomer, unassigned) [Compound 40b] has an EC50 of under 50 nM. With `Cc1nc2cc(-n3c(C(=O)NCc4ccccc4-c4ccncn4)c4n(c3=O)CC(C)N(C(=O)c3ccc(Br)c(Cl)c3)C4)ccc2o1` (single isomer, unassigned) [Compound 46b] the EC50 was under 50 nM.

Same assay, conditions: Hepatitis B virus, HepG2.117, 72 h, HBV DNA inhibition, 3 days incubation, read-out: EC50
`CC1Cn2c(c(C(=O)NCc3ccccc3-c3ncccn3)n(-c3ccc(OC[C@@H](C)O)cc3)c2=O)CN1C(=O)c1ccc(Br)c(C(F)(F)F)c1` (single isomer, unassigned) [Compound 64a] was tested, and the EC50 was under 50 nM. For `O=C(NCc1ccccc1)c1c2n(c(=O)n1-c1ccc(N3CCOC(F)(F)C3)cc1)CCN(C(=O)c1ccc(Br)c(Cl)c1)C2` [Compound 119, N-benzyl-7-(4-bromo-3-chloro-benzoyl)-2-[4-(2,2-difluoromorpholin-4-yl)phenyl]-3-oxo-6,8-dihydro-5H-imidazo[1,5-a]pyrazine-1-carboxamide], the EC50 was 50 to 500 nM. `CC1Cn2c(c(C(=O)NCc3ccccc3-c3ncccn3)n(-c3ccc4c(c3)nnn4CC(F)(F)F)c2=O)CN1C(=O)c1ccc(Br)c(C(F)(F)F)c1` (single isomer, unassigned) [Compound 103a] was tested, and the EC50 was 50 to 500 nM. Work on `C[C@H]1Cn2c(c(C(=O)NCc3ccccc3-c3cccnn3)n(-c3ccc(OC[C@@H](O)C(F)(F)F)cc3)c2=O)CN1C(=O)c1ccc(Br)c(C(F)(F)F)c1` (mixture of isomers) [Compound 66b, (6SR)-7-[4-bromo-3-(trifluoromethyl)benzoyl]-6-methyl-3-oxo-N-[(2-pyridazin-3-ylphenyl)methyl]-2-[4-[(2R)-3,3,3-trifluoro-2-hydroxy-propoxy]phenyl]-6,8-dihydro-5H-imidazo[1,5-a]pyrazine-1-carboxamide] yielded an EC50 of 50 to 500 nM. With `O=C(NCc1ccccc1-c1ncccn1)c1c2n(c(=O)n1-c1ccc(OC3CC3)cc1)C[C@@H](CO)N(C(=O)c1ccc(Br)c(C(F)(F)F)c1)C2` (stereo in doubt) [Compound 131, 7-[4-bromo-3-(trifluoromethyl)benzoyl]-2-[4-(cyclopropoxy)phenyl]-6-(hydroxymethyl)-3-oxo-N-[(2-pyrimidin-2-ylphenyl)methyl]-6,8-dihydro-5H-imidazo[1,5-a]pyrazine-1-carboxamide] the EC50 was 500 to 5000 nM. For `Cc1nnc(-c2ccccc2CNC(=O)c2c3n(c(=O)n2-c2ccc4oc(C)nc4c2)CC(C)N(C(=O)c2ccc(Br)c(C(F)(F)F)c2)C3)o1` (single isomer, unassigned) [Compound 54a], the EC50 was under 50 nM. Work on `C[C@@H]1Cn2c(c(C(=O)NCc3ccccc3-c3ccncn3)n(-c3ccc(OC[C@@](C)(O)C(F)(F)F)cc3)c2=O)CN1C(=O)c1ccc(Br)c(C(F)(F)F)c1` (stereo in doubt) [Compound 82a, rac-(6R)-7-[4-bromo-3-(trifluoromethyl)benzoyl]-6-methyl-3-oxo-N-[(2-pyrimidin-4-ylphenyl)methyl]-2-[4-[rac-(2R)-3,3,3-trifluoro-2-hydroxy-2-methyl-propoxy]phenyl]-6,8-dihydro-5H-imidazo[1,5-a]pyrazine-1-carboxamide] yielded an EC50 of 50 to 500 nM. `Cc1nnc(-c2cccc(F)c2CNC(=O)c2c3n(c(=O)n2-c2ccc(OC4CC4)cc2)CC(C)N(C(=O)c2ccc(Br)c(Cl)c2)C3)o1` (single isomer, unassigned) [Compound 45a] was tested, and the EC50 was 50 to 500 nM. In the case of `CC1Cn2c(c(C(=O)NCc3c(F)cccc3-c3ccncn3)n(-c3ccc(OC4CC4)cc3)c2=O)CN1C(=O)c1ccc(Br)c(Cl)c1` (single isomer, unassigned) [Compound 2a, (S*)-7-(4-bromo-3-chlorobenzoyl)-2-(4-cyclopropoxyphenyl)-N-(2-fluoro-6-(pyrimidin-4-yl)benzyl)-6-methyl-3-oxo-2,3,5,6,7,8-hexahydroimidazo[1,5-a]pyrazine-1-carboxamide], the EC50 is reported as 50 to 500 nM. For `CC1Cn2c(c(C(=O)NCc3ccccc3-c3ccccn3)n(-c3ccc(OC[C@@H](O)C(F)(F)F)cc3)c2=O)CN1C(=O)c1ccc(Br)c(C(F)(F)F)c1` (single isomer, unassigned) [Compound 68a], the EC50 was under 50 nM. In the case of `CC1Cn2c(c(C(=O)NCc3ccccc3-c3ncccn3)n(-c3ccc(OC4CC4)cc3)c2=O)CN1C(=O)c1ccc(Br)c(C(F)(F)F)c1` (single isomer, unassigned) [Compound 59a], the EC50 is reported as under 50 nM. With `COc1nccc(-c2ccccc2CNC(=O)c2c3n(c(=O)n2-c2ccc(OC4CC4)cc2)CC(C)N(C(=O)c2ccc(Br)c(Cl)c2)C3)n1` (single isomer, unassigned) [Compound 37a] the EC50 was 50 to 500 nM. Work on `Cc1cnn(-c2ccccc2CNC(=O)c2c3n(c(=O)n2-c2ccc(OC4CC4)cc2)CC(C)N(C(=O)c2ccc(Br)c(Cl)c2)C3)c1` (single isomer, unassigned) [Compound 6a, 7-(4-bromo-3-chloro-benzoyl)-2-[4-(cyclopropoxy)phenyl]-6-methyl-N-[[2-(4-methylpyrazol-1-yl)phenyl]methyl]-3-oxo-6,8-dihydro-5H-imidazo[1,5-a]pyrazine-1-carboxamide] yielded an EC50 of 50 to 500 nM. Work on `CC1Cn2c(c(C(=O)NCc3ccccc3-c3ncccn3)n(-c3ccc(OCC4(O)CC4)cc3)c2=O)CN1C(=O)c1ccc(Br)c(C(F)(F)F)c1` (single isomer, unassigned) [Compound 81a] yielded an EC50 of 50 to 500 nM. With `CC1Cn2c(c(C(=O)NCc3c(F)cccc3Cl)n(-c3ccc(N4CC5(CN(C)C5)C4)cc3)c2=O)CN1C(=O)c1ccc(Br)c(C(F)(F)F)c1` (single isomer, unassigned) [Compound 106a] the EC50 was 50 to 500 nM. For `CC1Cn2c(c(C(=O)NCc3ccccc3-c3ncccn3)n(-c3ccc4c(cnn4C[C@@H](O)C(F)(F)F)c3)c2=O)CN1C(=O)c1ccc(Br)c(C(F)(F)F)c1` (single isomer, unassigned) [Compound 101a], the EC50 was 50 to 500 nM.

— patent US11845752B2, “Substituted imidazo[1,5-a]pyrazines for the treatment of hepatitis B” (ALIGOS THERAPEUTICS, INC., priority 2020, dated 2023)
